One test has as its system VREf isolates. Nature of the test: microbe, parasite or virus in culture. The procedure:
(§1) Initial organism identification and susceptibility determination were performed via MALDI-TOF MS (Bruker Daltonics, Billerica, MA, USA) and MicroScan Walkaway (Beckman Coulter, Brea, CA), respectively, in the clinical microbiology laboratory. Pure colonies of the VREf isolates cultured from the CSF on hospital days 33 and 57 and from blood on days 35 and 52 were sub-cultured to BD BBL chocolate II agar slants (Becton, Dickinson and Company, Sparks, MD, USA) and shipped immediately overnight to the research laboratory where all subsequent testing was performed. Identification and resistance marker detection was confirmed via the Verigene Gram-positive blood culture assay (Luminex, Northbrook, IL, USA).
Minimum inhibitory concentrations were determined in triplicate according to CLSI guidelines. Modal MIC values are reported.

In a further test the test system is VREf. The test can be described thus: microbe, parasite or virus in culture. It is filed as cell-based, Enterococcus faecium. The procedure: as §1
Setting [1] is: Enterococcus faecium, VREf isolate from CSF, hospital day 33, modal MIC of triplicate, CLSI guidelines.
The mark [2] stands for this setting: Enterococcus faecium, VREf isolate from CSF, hospital day 57, modal MIC of triplicate, CLSI guidelines.
Where [3] appears, read: Enterococcus faecium, VREf isolate from blood, hospital day 35, modal MIC of triplicate, CLSI guidelines.
Setting [4] is: Enterococcus faecium, VREf isolate from blood, hospital day 52, modal MIC of triplicate, CLSI guidelines.
The mark [5] stands for this setting: VREf isolate from CSF, hospital day 33, CLSI M100-S30 unless footnoted (b: CLSI vancomycin-susceptible E. faecalis; c: FDA E. faecalis; d: EUCAST v.10.0 E. faecium).
Where [6] appears, read: VREf isolate from CSF, hospital day 57, CLSI M100-S30 unless footnoted.
The mark [7] stands for this setting: VREf isolate from blood, hospital day 35, CLSI M100-S30 unless footnoted.
The mark [8] stands for this setting: VREf isolate from blood, hospital day 52, CLSI M100-S30 unless footnoted.
The mark [9] stands for this setting: VREf isolate from CSF, hospital day 33, modal MIC of triplicate, CLSI guidelines.
Where [10] appears, read: VREf isolate from CSF, hospital day 57, modal MIC of triplicate, CLSI guidelines.
Setting [11] is: VREf isolate from blood, hospital day 35, modal MIC of triplicate, CLSI guidelines.
[12] abbreviates: VREf isolate from blood, hospital day 52, modal MIC of triplicate, CLSI guidelines.

Molecules are shown by their SMILES. Like-named read-outs stand apart in the source and are kept apart here.

Regarding `CC1(C)S[C@@H]2[C@H](NC(=O)[C@H](N)c3ccccc3)C(=O)N2[C@H]1C(=O)O` [Ampicillin], the MIC in the test with VREf isolates (setting [1]), in the test on VREf isolates (setting [2]), in the test with VREf isolates (setting [3]) and with VREf isolates (setting [4]) was at least 16 µg/mL throughout. Further, the “Interpretive Category” value with VREf isolates (setting [5]), in the test with VREf isolates (setting [6]), with VREf isolates (setting [7]) and in the test on VREf isolates (setting [8]) was “R” throughout.
Consider `CO/N=C(\C(=O)N[C@@H]1C(=O)N2C(C(=O)O)=C(CSc3nc(=O)c(=O)[nH]n3C)CS[C@H]12)c1csc(N)n1` [Ceftriaxone], for which the MIC with VREf isolates (setting [1]), in the test on VREf isolates (setting [2]), in the test on VREf isolates (setting [3]) and with VREf isolates (setting [4]) was at least 128 µg/mL each time.
With `O=C(N[C@H](CO)[C@H](O)c1ccc([N+](=O)[O-])cc1)C(Cl)Cl` [Chloramphenicol], the MIC with VREf isolates (setting [1]), in the test with VREf isolates (setting [2]), in the test on VREf isolates (setting [3]) and with VREf isolates (setting [4]) was at least 32 µg/mL throughout. In addition, the “Interpretive Category” value with VREf isolates (setting [5]), in the test on VREf isolates (setting [6]), in the test on VREf isolates (setting [7]) and in the test on VREf isolates (setting [8]) was “R” each time.
Turning to `C[C@H]1COc2c(N3CCN(C)CC3)c(F)cc3c(=O)c(C(=O)O)cn1c23` [Levofloxacin], the MIC in the test on VREf isolates (setting [1]), in the test on VREf isolates (setting [2]), in the test on VREf isolates (setting [3]) and in the test with VREf isolates (setting [4]) was at least 8 µg/mL in each case. Besides, the “Interpretive Category” value in the test on VREf isolates (setting [5]), with VREf isolates (setting [6]), with VREf isolates (setting [7]) and in the test on VREf isolates (setting [8]) was “R” throughout.
On to `O=C1CN(/N=C/c2ccc([N+](=O)[O-])o2)C(=O)N1` [Nitrofurantoin], for which the MIC in the test on VREf isolates (setting [1]), with VREf isolates (setting [2]), in the test on VREf isolates (setting [3]) and with VREf isolates (setting [4]) was at least 128 µg/mL each time. Also, the “Interpretive Category” value with VREf isolates (setting [5]), in the test on VREf isolates (setting [6]), in the test with VREf isolates (setting [7]) and with VREf isolates (setting [8]) was “R” in each case.
In the case of `CN[C@H]1C(=O)N[C@@H]2Cc3ccc(cc3)Oc3cc4cc(c3O[C@@H]3O[C@H](C(=O)O)[C@@H](O)[C@H](O)[C@H]3NC(=O)CCCCCCCCC(C)C)Oc3ccc(cc3Cl)[C@@H](O)[C@@H]3NC(=O)[C@H](NC(=O)[C@@H]4NC(=O)[C@@H](NC2=O)c2cc(cc(O)c2Cl)Oc2cc1ccc2O)c1ccc(O)c(c1)-c1c(O[C@H]2O[C@H](CO)[C@@H](O)[C@H](O)[C@@H]2O)cc(O)cc1[C@@H](C(=O)NCCCN(C)C)NC3=O` [Dalbavancin], the MIC against VREf isolates is at least 4 µg/mL.
As for `CCCCCCCCCC(=O)N[C@@H](Cc1c[nH]c2ccccc12)C(=O)N[C@H](CC(N)=O)C(=O)N[C@@H](CC(=O)O)C(=O)N[C@@H]1C(=O)NCC(=O)N[C@@H](CCCN)C(=O)N[C@@H](CC(=O)O)C(=O)N[C@H](C)C(=O)N[C@@H](CC(=O)O)C(=O)NCC(=O)N[C@H](CO)C(=O)N[C@@H]([C@H](C)CC(=O)O)C(=O)N[C@@H](CC(=O)c2ccccc2N)C(=O)O[C@@H]1C` [Daptomycin], the MIC in the test with VREf isolates was at least 8 µg/mL. For the same compound, the “Interpretive Category” value with VREf isolates (setting [5]), in the test with VREf isolates (setting [6]), in the test with VREf isolates (setting [7]) and in the test on VREf isolates (setting [8]) was “R” throughout. Besides, the “local laboratory susceptibility result” value in the test on VREf (VREf blood isolate of hospital day 22) is listed as “resistance”. The susceptibility category result with VREf (VREf blood isolate returning after 11 days of daptomycin therapy) is on record as “resistant”; in the test on VREf (first episode of VREf bacteremia, 2.5 months before admission) it was “susceptible dose-dependent”.
Turning to `CN[C@H](CC(C)C)C(=O)N[C@H]1C(=O)N[C@@H](CC(N)=O)C(=O)N[C@H]2C(=O)N[C@H]3C(=O)N[C@H](C(=O)N[C@H](C(=O)O)c4cc(O)cc(O)c4-c4cc3ccc4O)[C@H](O)c3ccc(c(Cl)c3)Oc3cc2cc(c3O[C@@H]2O[C@H](CO)[C@@H](O)[C@H](O)[C@H]2O[C@H]2C[C@](C)(N)[C@H](O)[C@H](C)O2)Oc2ccc(cc2Cl)[C@H]1O` [Vancomycin], the “Interpretive Category” value in the test on VREf isolates (setting [5]), in the test with VREf isolates (setting [6]), in the test on VREf isolates (setting [7]) and with VREf isolates (setting [8]) was “R” in each case. In addition, the MIC with VREf isolates (setting [9]), with VREf isolates (setting [10]), with VREf isolates (setting [11]) and with VREf isolates (setting [12]) was at least 256 µg/mL in each case.
Turning to `CO[C@H]1/C=C/O[C@@]2(C)Oc3c(C)c(O)c4c(O)c(c(/C=N/N5CCN(C)CC5)c(O)c4c3C2=O)NC(=O)/C(C)=C\C=C\[C@H](C)[C@H](O)[C@@H](C)[C@@H](O)[C@@H](C)[C@H](OC(C)=O)[C@@H]1C` [Rifampin], the MIC in the test with VREf isolates (setting [1]), in the test with VREf isolates (setting [2]), in the test on VREf isolates (setting [3]) and in the test with VREf isolates (setting [4]) was at least 4 µg/mL throughout. The “Interpretive Category” value with VREf isolates (setting [5]), in the test on VREf isolates (setting [6]), in the test with VREf isolates (setting [7]) and with VREf isolates (setting [8]) was “R” each time.
For `CN(C)[C@@H]1C(O)=C(C(N)=O)C(=O)[C@@]2(O)C(O)=C3C(=O)c4c(O)cccc4[C@@](C)(O)[C@H]3C[C@@H]12` [Tetracycline], the “Interpretive Category” value in the test with VREf isolates (setting [5]), in the test on VREf isolates (setting [6]), in the test with VREf isolates (setting [7]) and in the test with VREf isolates (setting [8]) was “R” throughout.
In the case of `CNC(C)C1CCC(N)C(OC2C(N)CC(N)C(OC3OCC(C)(O)C(NC)C3O)C2O)O1` (stereo not drawn) [Gentamicin], the MIC in the test on VREf isolates (setting [1]), in the test on VREf isolates (setting [2]), in the test with VREf isolates (setting [3]) and in the test with VREf isolates (setting [4]) was at most 500 µg/mL each time. In addition, the “Interpretive Category” value with VREf isolates (setting [5]), with VREf isolates (setting [6]), with VREf isolates (setting [7]) and in the test on VREf isolates (setting [8]) was “S” in each case.
As to `CN(C)c1cc(CNCC(C)(C)C)c(O)c2c1C[C@H]1C[C@H]3[C@H](N(C)C)C(O)=C(C(N)=O)C(=O)[C@@]3(O)C(O)=C1C2=O` [Omadacycline], the MIC with VREf isolates (setting [1]), in the test with VREf isolates (setting [2]), with VREf isolates (setting [3]) and with VREf isolates (setting [4]) was 1 µg/mL each time. Also, the “Interpretive Category” value in the test on VREf isolates (setting [5]), in the test with VREf isolates (setting [6]), in the test with VREf isolates (setting [7]) and in the test on VREf isolates (setting [8]) was “R” in each case.
On to `C=C[C@]1(C)C[C@@H](OC(=O)CS[C@@H]2CC[C@@H](N)C[C@H]2O)[C@]2(C)[C@H](C)CC[C@]3(CCC(=O)[C@H]32)[C@@H](C)[C@@H]1O` [Lefamulin], for which the MIC in the test with VREf isolates (setting [1]) was 1 µg/mL; with VREf isolates (setting [2]), 2 µg/mL; in the test with VREf isolates (setting [3]), 1 µg/mL; in the test on VREf isolates (setting [4]), 2 µg/mL.
On to `C[C@@H]1O[C@@H]1P(=O)(O)O` [Fosfomycin], for which the MIC with VREf isolates (setting [1]), in the test with VREf isolates (setting [2]), with VREf isolates (setting [3]) and with VREf isolates (setting [4]) was 64 µg/mL each time. In addition, the “Interpretive Category” value in the test with VREf isolates (setting [5]), with VREf isolates (setting [6]), with VREf isolates (setting [7]) and in the test on VREf isolates (setting [8]) was “S” throughout.
As to `Nc1nc(-n2cc(C(=O)O)c(=O)c3cc(F)c(N4CC(O)C4)c(Cl)c32)c(F)cc1F` [Delafloxacin], the MIC in the test on VREf isolates (setting [1]), with VREf isolates (setting [2]), in the test on VREf isolates (setting [3]) and in the test with VREf isolates (setting [4]) was over 8 µg/mL in each case. In addition, the “Interpretive Category” value in the test on VREf isolates (setting [5]), with VREf isolates (setting [6]), in the test on VREf isolates (setting [7]) and in the test with VREf isolates (setting [8]) was “R” each time.
Turning to `CC[C@H]1OC(=O)[C@H](C)[C@@H](O[C@H]2C[C@@](C)(OC)[C@@H](O)[C@H](C)O2)[C@H](C)[C@@H](O[C@@H]2O[C@H](C)C[C@H](N(C)C)[C@H]2O)[C@](C)(O)C[C@@H](C)C(=O)[C@H](C)[C@@H](O)[C@]1(C)O` [Erythromycin], the MIC in the test with VREf isolates (setting [1]), in the test with VREf isolates (setting [2]), with VREf isolates (setting [3]) and with VREf isolates (setting [4]) was at least 8 µg/mL throughout. Moreover, the “Interpretive Category” value with VREf isolates (setting [5]), with VREf isolates (setting [6]), with VREf isolates (setting [7]) and in the test with VREf isolates (setting [8]) was “R” each time.
Regarding `CCO/N=C(\C(=O)N[C@@H]1C(=O)N2C(C(=O)[O-])=C(Sc3nc(-c4cc[n+](C)cc4)cs3)CS[C@H]12)c1nsc(N)n1` [Ceftaroline], the MIC in the test with VREf isolates (setting [1]), in the test on VREf isolates (setting [2]), in the test with VREf isolates (setting [3]) and in the test on VREf isolates (setting [4]) was at least 128 µg/mL throughout.
Regarding `CCCCCCCCCCNCCN[C@@]1(C)C[C@H](O[C@H]2[C@H](Oc3c4cc5cc3Oc3ccc(cc3Cl)[C@@H](O)[C@@H](NC(=O)[C@@H](CC(C)C)NC)C(=O)N[C@@H](CC(N)=O)C(=O)N[C@H]5C(=O)N[C@H]3C(=O)N[C@H](C(=O)N[C@H](C(=O)O)c5cc(O)c(CNCP(=O)(O)O)c(O)c5-c5cc3ccc5O)[C@H](O)c3ccc(c(Cl)c3)O4)O[C@H](CO)[C@@H](O)[C@@H]2O)O[C@@H](C)[C@H]1O` [Telavancin], the MIC in the test on VREf isolates (setting [9]), with VREf isolates (setting [10]), in the test with VREf isolates (setting [11]) and in the test on VREf isolates (setting [12]) was at least 4 µg/mL each time.
